Read-outs that look alike come from different tables or passages of the source.
Columns and labels:
[1] = tested on: benzaldehyde generation from L-Phe by AAD, HmaS At, Md1B and Md1C concentrates; test: Synthesis of benzaldehyde from L-Phe with addition of culture broth of catalase-expressing strain; format: biochemical, E. coli; settings: 50 mM L-Phe, 0.1 mL of 5-fold Cat concentrate in 1 mL reaction mixture, 25° C., 20 hours, then Md1C concentrate 4 hours; HPLC; Ctrl 9.1
Protocol: A 10 mL aliquot of the AAD culture broth obtained in Example 1 was centrifuged, 8 mL of the supernatant was removed, and the cells were suspended in the remaining culture supernatant, to obtain a 5-fold concentrated culture broth. This was used for the following reactions as an AAD concentrate. Similarly, 5-fold concentrates were prepared from the HmaS At culture broths, Md1B culture broth, and Md1C culture broth obtained in Examples 2 to 4, and used for the following reactions as a HmaS At concentrates, Md1B concentrate, and Md1C concentrate. A 1 mL aliquot of the Cat 1 culture broth obtained in Example 6 was centrifuged, 0.8 mL of the supernatant was removed, and the cells were suspended in the remaining culture supernatant, to obtain a 5-fold concentrated culture broth. This was used for the following reactions as a Cat 1 concentrate. Similarly, 5-fold concentrates were prepared from the Cat 2 to 15 culture broths and the Ctrl culture broth, and used for the following reactions as Cat 2 to 15 concentrates and a Ctrl concentrate.
After 20 hours, the reaction mixture was centrifuged, a 0.49 mL aliquot of the supernatant was mixed with 0.01 mL of the Md1C concentrate, and the resultant mixture was put into a test tube and shaken at 25° C. […]

[2] = tested on: HmaS At-His purified enzyme (HMAS); settings: for Generated amount of mandelate: 10 mM sodium phenylpyruvate, 25° C., 15 minutes, no hydrogen peroxide taken as 100%
Protocol: Cells were collected from 10 mL of the HmaS At culture broth obtained in Example 2 by centrifugation, suspended in 2 mL of xTractor Buffer (Takara Bio), and allowed to stand at room temperature for 20 minutes, to disrupt the cells. The cell residue was removed from the disruptant by centrifugation, and the obtained supernatant was used as a soluble fraction. The soluble fraction was applied to a His-tag protein purification column HisTALON Superflow Cartridges (Takara Bio, CV=1 mL) equilibrated with a buffer containing 20 mM Tris-HCl (pH 8.0), 300 mM NaCl, and 10 mM Imidazole, to adsorb proteins on the carrier. Proteins not adsorbed on the carrier (non-adsorbed proteins) were washed off with a buffer containing 20 mM Tris-HCl (pH 8.0), 300 mM NaCl, and 10 mM Imidazole, and then a buffer containing 20 mM Tris-HCl (pH 8.0), 300 mM NaCl, and 150 mM Imidazole was flowed at 1.5 mL/min, to elute the adsorbed proteins. The eluted fractions were collected and concentrated using Amicon Ultra-15 30 k (Millipore). The concentrate was diluted with 20 mM of Tris-HCl (pH 7.6), and hereinafter used as a HmaS At-His purified enzyme.
A reaction mixture (0.2 mL) containing 10 mM of sodium phenylpyruvate, 0.01 mM of iron sulfate, 10 mM of trisodium citrate, 10 mM of sodium ascorbate, 100 mM of Tris-HCl (pH 7.0), 0.02 mg/mL of the HmaS At-His purified enzyme, and 0 to 1 mM of hydrogen peroxide was put into a 1.5 mL-volume tube, and a reaction was carried out at 25° C. Similarly, a reaction without addition of HmaS At-His was carried out. After 15 minutes, a 0.05 mL aliquot of the reaction mixture was mixed with 0.2 mL of a reaction stop solution (1% phosphoric acid), and subjected to HPLC analysis. HPLC analysis was carried out in the same manner as Example 5, and mandelate enzymatically-generated was quantified. The amount of hydrogen peroxide added and the generated amount of mandelate are shown in Table 3, wherein the generated amount of mandelate in the case of not adding hydrogen peroxide was taken as 100%.

Compound	Benzaldehyde [1] [mM]	Generated amount of mandelate ([2]; 0.001 mM hydrogen peroxide added) [%]	Generated amount of mandelate ([2]; 0.01 mM hydrogen peroxide added) [%]	Generated amount of mandelate ([2]; 0.1 mM hydrogen peroxide added) [%]	Generated amount of mandelate ([2]; 1 mM hydrogen peroxide added) [%]	Effect on HMAS activity ([2]; 0.01 to 1 mM of hydrogen peroxide added)
Cat 2: Cat HPII derived from E. coli (SEQ ID NO: 6), concentrated culture broth of expressing strain	10.7	–	–	–	–	–
OO [Hydrogen peroxide, hydrogen peroxide]	–	103	94	39	1	inhibits HMAS activity

Source: US20220251611A1, “BENZALDEHYDE PRODUCTION METHOD” (AJINOMOTO CO., INC., priority 2019, published 2022)
